Test results published in article PMC8009478, “Novel Curcumin-Diethyl Fumarate Hybrid as a Dualistic GSK-3β Inhibitor/Nrf2 Inducer for the Treatment of Parkinson’s Disease” (ACS Chemical Neuroscience, 2020).
Where “and” joins values, the source holds several entries; their conditions need not be identical. Equal entries are not always repeated.

Assays:
[1] = system: TagGFP2-α-syn SH-SY5Y cells; test: α-syn aggregates induced by 6-OHDA, fluorescence microscopy; assay type: cell-based, human; conditions: 5 μM for 24 h, then 6-OHDA 100 μM for 2 h
Experimental: Assessment of the α-syn aggregate formation was performed to corroborate the above results. TagGFP2-α-syn SH-SY5Y cells were treated for 24 h with 5 μM of 4 and 5 and then with 100 μM of 6-OHDA. After a 2 h incubation, the presence of α-syn aggregates was visualized by fluorescence microscopy analysis and quantified (Figure 7).
Figure 7 Effects of compounds 4 and 5 on α-syn aggregates induced by 6-OHDA in TagGFP2-α-syn SH-SY5Y cells. Cells were treated with compounds 4 and 5 (5 μM, for 24 h) and then with 6-OHDA (100 μM, for 2 h). At the end of incubation, the α-syn aggregates level was detected by fluorescence microscope. (A) Representative images of α-syn aggregates. (B) Quantification of the α-syn aggregates level. Data are expressed as mean fluorescence intensity ± SEM of at least three independent experiments (§§ p < 0.01 vs untreated cells, * p < 0.05 vs cells treated with 6-OHDA at one-way ANOVA with the Bonferroni post hoc test). Scale bars: 50 μm.
At the end of incubation, the aggregation of α-synuclein was detected using an inverted fluorescent microscope (Eclipse Ti-E, Nikon Instruments Spa, Florence, Italy). The intensity of fluorescence was directly proportional to the aggregation of α-synuclein. Data are expressed as arbitrary units of fluorescence.

[2] = system: Nrf2; test: Nrf2 nuclear translocation by Western blotting; assay type: cell-based, human; conditions: 5 μM; for nuclear translocation of Nrf2: 1, 3 and 6 h; for treatment time of maximum ratio between nuclear and cytosolic Nrf2 levels: 1, 3 and 6 h tested
Experimental: In light of these findings, 4 and 5 emerged as the most promising to be further studied regarding their effect on the Nrf2/ARE pathway. […] The maximum ratio between nuclear and cytosolic Nrf2 levels was detected after a 3 h treatment for both compounds, while a slight reduction was observed after 6 h.
Figure 5 Effects of compounds 4 and 5 on the Nrf2/ARE signaling pathway (A and B) and NQO1 gene expression (C) in SH-SY5Y cells. (A) Cells were treated with compounds 4 and 5 (5 μM) for different times (1, 3, and 6 h). Translocation of Nrf2 from the cytosol to the nucleus was evaluated by Western blotting. Data are expressed as a ratio between nuclear Nrf2 and cytoplasmic Nrf2 levels and reported as mean ± SEM of at least three independent experiments. (B) Cells were treated with compounds 4 and 5 (5 μM) and DMF (5 μM) for 6 h. The Nrf2/ARE binding activity was determined by an ELISA assay. Results are expressed as fold increase versus untreated cells and reported as mean ± SEM of at least three independent experiments (** p < 0.01 and * p < 0.05 versus untreated cells at the t-test). (C) Cells were treated with compounds 4 and 5 (5 μM) for different times (6, 12, and 24 h). The NQO1 expression was determined by RT-PCR. Results are expressed as the relative normalized expression and reported as mean ± SEM of at least three independent experiments (*** p < 0.001 versus untreated cells at one-way ANOVA with the Dunnett post hoc test).

[3] = system: SH-SY5Y cells; test: Neuroprotection against 6-OHDA, MTT assay; assay type: cell-based, human; conditions: 5 μM for 24 h, then 6-OHDA 100 μM for 2 h
Experimental: Figure 6 Effects of 4 and 5 on neurotoxicity induced by OAβ1–42 oligomers and 6-OHDA in SH-SY5Y cells. (A) Cells were incubated with 4 and 5 (5 μM, for 24 h) and then treated with OAβ1–42 (10 μM, for 4 h). (B) Cells were incubated with compounds 4 and 5 (5 μM, for 24 h), then treated with 6-OHDA (100 μM, for 2 h), and then starved in complete medium for 22 h. The neurotoxicity was evaluated by an MTT assay. Data are expressed as percentages of neurotoxicity versus cells treated with Aβ1–42 oligomers or 6-OHDA and reported as mean ± SEM of at least three independent experiments (* p < 0.05 versus cells treated with 6-OHDA at one-way ANOVA with the Dunnett post hoc test).
The neurotoxin 6-OHDA provides an in vitro lesion model by inducing CNS oxidative damage and neuroinflammation suitable for assessing the neuroprotective potential of PD therapeutics.[34] Consistent with these effects, 6-OHDA (100 μM, for 2 h) was employed to induce damage in SH-SY5Y cells previously treated with 4 and 5 (5 μM, for 24 h).
Then, cells were treated with 6-hydroxydopamine (6-OHDA, 100 μM) for 2 h and starved in complete medium for 22 h. The neuroprotective activity was measured by using the MTT assay as previously described.[47] Data are expressed as a percentage of neurotoxicity versus untreated cells.

[4] = target: GSK-3β (Homo sapiens, UniProt P49841); test: GSK-3β inhibition, luminescent kinase assay (Kinase-Glo); conditions: for IC50: GSK-3β inhibition IC50 (μM) ± SEM, human recombinant enzyme, luminescence method
Chain of GSK-3β (P49841 whole entry): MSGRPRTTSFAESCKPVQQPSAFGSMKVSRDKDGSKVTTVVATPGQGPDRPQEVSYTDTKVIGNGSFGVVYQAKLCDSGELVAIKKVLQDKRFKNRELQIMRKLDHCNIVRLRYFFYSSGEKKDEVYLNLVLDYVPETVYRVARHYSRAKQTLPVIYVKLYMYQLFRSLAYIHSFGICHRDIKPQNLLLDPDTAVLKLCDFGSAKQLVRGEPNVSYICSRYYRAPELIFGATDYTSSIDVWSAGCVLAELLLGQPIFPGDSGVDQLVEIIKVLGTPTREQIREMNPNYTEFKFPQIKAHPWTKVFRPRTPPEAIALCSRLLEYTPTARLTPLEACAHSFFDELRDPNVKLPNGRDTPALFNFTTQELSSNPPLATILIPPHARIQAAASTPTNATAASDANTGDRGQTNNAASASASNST
Experimental: A kinetic study was performed in which the concentrations of both ATP and tested compounds were varied, while the concentration of the substrate was kept constant.
GSK-3β inhibition . Kinase-Glo assays (Promega Biotech Iberica, SL) were performed in assay buffer using
black 96-well plates. In a typical assay, 10 µl (10 µM) of test compound (dissolved in DMSO at 1 mM concentration and diluted in advance in assa y buffer to the desired concentration) and 10 µL (20 ng) of
enzyme were added to each well followed by 20 µl of assay buffer containing 50 µM substrate and 2 µM ATP.
After 30 -min incu bation at 30 °C
the enzymatic reaction was stopped with 40 µL of Kinase -Glo reagent. Glow -type luminescence was recorded
after 10 min using a FLUOstar Optima (BMG Labtechnologies GmbH, Offenburg Germany) multimode reader.
The activity is proportional to th e difference in the total and consumed ATP. The inhibitory activities were
calculated on the basis of maximal activities measured in the absence of inhibitor. The IC 50 was defined as the concentration of each compound that reduces a 50 % the enzymatic activity with respect to that without
inhibitors. Five different concentrations by duplicate were used to determine the dose/response curve.

SMILES | levels of α-syn aggregates elicited by 6-OHDA [1] | nuclear translocation of Nrf2 [2] | treatment time of maximum ratio between nuclear and cytosolic Nrf2 levels [2] [h] | protection against 6-OHDA-induced decrease in cell viability [3] | IC50 [4] | inhibition at 10 µM ([4]; read-out: GSK-3β inhibition, inhibition (%)) [%]
CCOC(=O)/C=C/C(C(=O)/C=C/c1ccc(OC)cc1)=C(O)\C=C\c1ccc(OCc2ccccc2)cc1 [Compound 5, Ethyl (2E,4Z,6E)-7-(4-(Benzyloxy)phenyl)-5-hydroxy-4-((E)-3-(4-methoxyphenyl)acryloyl)hepta-2,4,6-trienoate] | significantly decrease the levels of toxic α-syn aggregates | induce the nuclear translocation of Nrf2 | 3 | mitigate the 6-OHDA-induced decrease in cell viability | 8.4 µM and 8.39 µM | –
CCOC(=O)/C=C/C(C(=O)/C=C/c1ccc(OC)cc1)=C(O)\C=C\c1ccc(OC)cc1 [Compound 4, Ethyl (2E,4Z,6E)-5-Hydroxy-7-(4-methoxyphenyl)-4-((E)-3-(4-methoxyphenyl)acryloyl)hepta-2,4,6-trienoate] | significantly decrease the levels of toxic α-syn aggregates | induce the nuclear translocation of Nrf2 | 3 | mitigate the 6-OHDA-induced decrease in cell viability | > 10 µM | 40
